Assay results as given in US20160257676A1, “Aminoisoquinoline Derivatives as Protein Kinase Inhibitors” (ETERNITY BIOSCIENCE INC., priority 2012, published 2016).

Tests used:
[1] = system: A375 cells; test: Cell proliferation assay (CellTiter-Glo), A375 cells; format: cell-based; conditions: Homo sapiens, A-375, 72 h, 3-day treatment, vs vehicle control (1% DMSO), read-out: A375 cell growth IC50
Protocol: Cell Proliferation Assay:
A375, Colo-205, Calu-6, and SW-480 cells were purchased from American Type Culture Collection (USA). All cells were cultured in the recommended medium and serum concentration. Cells were maintained at 37° C. in a humidified atmosphere with 5% CO2. For cell proliferation assay, cells were seeded in 96-well pates at a density of 1,000 to 5,000 cells per well and cultured overnight at 37° C. in medium supplemented with 5-10% FBS. On the next day, the test articles at various concentrations or vehicle control (1% DMSO) were added into cell culture. After 3-day treatment, the growth of cells was assayed by the CellTiter-Glo® Luminestceaent Cell Viability Assay (Promega).

[2] = target: BRAF^V600E (Homo sapiens, UniProt P15056, V600E); test: BRAF^V600E enzymatic activity assay (LanthaScreen kinase assay kit, TR-FRET)
BRAF^V600E, sequence (P15056 whole entry V600E): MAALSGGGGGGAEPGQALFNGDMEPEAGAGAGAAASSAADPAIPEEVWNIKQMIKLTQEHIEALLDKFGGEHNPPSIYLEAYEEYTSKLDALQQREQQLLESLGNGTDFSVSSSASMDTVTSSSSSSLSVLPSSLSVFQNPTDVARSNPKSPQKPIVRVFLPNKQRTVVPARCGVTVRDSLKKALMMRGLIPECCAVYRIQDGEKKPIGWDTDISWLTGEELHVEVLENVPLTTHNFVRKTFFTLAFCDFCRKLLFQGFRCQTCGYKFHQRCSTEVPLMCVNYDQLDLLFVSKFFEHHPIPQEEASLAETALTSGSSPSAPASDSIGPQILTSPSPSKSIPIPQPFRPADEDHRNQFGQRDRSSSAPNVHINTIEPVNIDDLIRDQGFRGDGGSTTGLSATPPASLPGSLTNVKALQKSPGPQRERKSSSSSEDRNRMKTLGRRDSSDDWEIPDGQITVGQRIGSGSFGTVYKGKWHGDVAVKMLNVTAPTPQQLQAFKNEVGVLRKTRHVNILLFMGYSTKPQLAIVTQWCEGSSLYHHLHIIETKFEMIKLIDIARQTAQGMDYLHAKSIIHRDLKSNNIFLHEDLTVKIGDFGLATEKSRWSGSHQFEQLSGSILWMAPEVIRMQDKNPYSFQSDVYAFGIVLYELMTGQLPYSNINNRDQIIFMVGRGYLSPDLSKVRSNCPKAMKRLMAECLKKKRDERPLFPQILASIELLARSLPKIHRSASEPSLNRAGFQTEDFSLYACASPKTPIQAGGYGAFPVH

Structure (SMILES)	IC50 [1] [nM]	IC50 [2] [nM]
CCCS(=O)(=O)Nc1ccc(F)c(-c2cc3cnc(NC[C@H](C)NC(=O)OC)cc3cc2OCCF)c1F [Example 6, methyl N-[(1S)-2-[[7-[2,6-difluoro-3-(propylsulfonylamino)phenyl]-6-(2-fluoroethoxy)-3-isoquinolyl]amino]-1-methyl-ethyl]carbamate]	158	100
O=S1(=O)CCCN1c1ccc(F)c(-c2ccc3c(cnc4[nH]ncc43)c2)c1F [Example 18, N-(2,4-difluoro-3-(3H-pyrazolo[3,4-c]isoquinolin-7-yl)phenyl)-1,3-propanesultam]	1000	3740
CCCS(=O)(=O)Nc1ccc(F)c(-c2cc3cnc(NC[C@@H](C)NC(=O)OC)cc3cc2OC)c1F [Example 5, methyl N-[(1R)-2-[[7-[2,6-difluoro-3-(propylsulfonylamino)phenyl]-6-methoxy-3-isoquinolyl]amino]-1-methyl-ethyl]carbamate]	726	3660
COc1cc2c(cnc3[nH]ncc32)cc1-c1c(F)ccc(NS(=O)(=O)CCCF)c1F [Example 21, N-(2,4-difluoro-3-(8-methoxy-3H-pyrazolo[3,4-c]isoquinolin-7-yl)phenyl)-3-fluoropropane-1-sulfonamide]	94	70
CCCS(=O)(=O)Nc1ccc(F)c(-c2cc3cnc(NC[C@H](C)NC(=O)OC)cc3cc2CC)c1F [Example 7, methyl N-[(1S)-2-[[7-[2,6-difluoro-3-(propylsulfonylamino)phenyl]-6-ethyl-3-isoquinolyl]amino]-1-methyl-ethyl]carbamate]	306	560
CCCS(=O)(=O)Nc1ccc(F)c(-c2ccc3cc(NC[C@H](C)NC(=O)OC)ncc3c2)c1F [Example 2, (S)-methyl-1-(7-(2,6-difluoro-3-(propylsulfonamido)phenyl)isoquinolin-3-ylamino)propan-2-ylcarbamate]	775	
COc1cc2c(cnc3[nH]ncc32)cc1-c1c(F)ccc(NS(=O)(=O)CCCF)c1Cl [Example 22, N-(2-chloro-4-fluoro-3-(8-methoxy-3H-pyrazolo[3,4-c]isoquinolin-7-yl)phenyl)-3-fluoropropane-1-sulfonamide]	66	12
CCCS(=O)(=O)Nc1ccc(F)c(-c2cc3cnc(N)cc3cc2OC)c1F [Example 3, N-(3-(3-amino-6-methoxyisoquinolin-7-yl)-2,4-difluorophenyl)propane-1-sulfonamide]	1000	799
COc1cc2c(cnc3[nH]nc(C4CC4)c32)cc1-c1c(F)ccc(NS(=O)(=O)CCCF)c1Cl [Example 25, N-(2-chloro-3-(1-cyclopropyl-8-methoxy-3H-pyrazolo[3,4-c]isoquinolin-7-yl)-4-fluorophenyl)-3-fluoropropane-1-sulfonamide]	25	
CCCS(=O)(=O)Nc1ccc(F)c(-c2cc3cnc(NC[C@H](C)NC(=O)OC)cc3cc2OC)c1F [Example 4, methyl N-[(1S)-2-[[7-[2,6-difluoro-3-(propylsulfonylamino)phenyl]-6-methoxy-3-isoquinolyl]amino]-1-methyl-ethyl]carbamate]	19	212
COc1cc2c(cnc3[nH]nc(C4CC4)c32)cc1-c1c(F)ccc(NS(=O)(=O)CCCF)c1F [Example 26, N-(3-(1-cyclopropyl-8-methoxy-3H-pyrazolo[3,4-c]isoquinolin-7-yl)-2,4-difluorophenyl)-3-fluoropropane-1-sulfonamide]	29.7	48.8
CCCS(=O)(=O)Nc1ccc(F)c(-c2cc3cnc4[nH]ncc4c3cc2OC)c1Cl [Example 20, N-(2-chloro-4-fluoro-3-(8-methoxy-3H-pyrazolo[3,4-c]isoquinolin-7-yl)phenyl)propane-1-sulfonamide]	47	10

More lines, now with the values ahead:

IC50 [1] [nM]	IC50 [2] [nM]	Structure (SMILES)
145		CCCS(=O)(=O)Nc1ccc(F)c(-c2ccc3c(cnc4[nH]nc(Br)c43)c2)c1F [Example 9, N-(3-(1-bromo-3H-pyrazolo[3,4-c]isoquinolin-7-yl)-2,4-difluorophenyl)propane-1-sulfonamide]
77	60	CCCS(=O)(=O)Nc1ccc(F)c(-c2cc3cnc4[nH]ncc4c3cc2OC)c1F [Example 19, N-(2,4-difluoro-3-(8-methoxy-3H-pyrazolo[3,4-c]isoquinolin-7-yl)phenyl)propane-1-sulfonamide]
227	70	CCCS(=O)(=O)Nc1ccc(F)c(-c2ccc3c(cnc4[nH]ncc43)c2)c1F [Example 8, N-(2,4-difluoro-3-(3H-pyrazolo[3,4-c]isoquinolin-7-yl)phenyl)propane-1-sulfonamide]
95	18.3	CCCS(=O)(=O)Nc1ccc(F)c(-c2ccc3c(cnc4[nH]ncc43)c2)c1Cl [Example 11, N-(2-chloro-4-fluoro-3-(3H-pyrazolo[3,4-c]isoquinolin-7-yl)phenyl)propane-1-sulfonamide]
341	41.3	CCCS(=O)(=O)Nc1ccc(Cl)c(-c2ccc3c(cnc4[nH]ncc43)c2)c1Cl [Example 16, N-(2,4-dichloro-3-(3H-pyrazolo[3,4-c]isoquinolin-7-yl)phenyl)propane-1-sulfonamide]
1000	690	CCCS(=O)(=O)Nc1ccc(F)c(-c2ccc3c(cnc4[nH]ccc43)c2)c1F [Example 27, N-(2,4-difluoro-3-(3H-pyrrolo[2,3-c]isoquinolin-7-yl)phenyl)propane-1-sulfonamide]
145	2710	CCCS(=O)(=O)Nc1ccc(F)c(-c2ccc3c(cnc4[nH]nc(C5CC5)c43)c2)c1F [Example 10, N-(3-(1-cyclopropyl-3H-pyrazolo[3,4-c]isoquinolin-7-yl)-2,4-difluorophenyl)propane-1-sulfonamide]
144		CCCS(=O)(=O)Nc1ccc(F)c(-c2ccc3c(cnc4[nH]nc(Br)c43)c2)c1Cl [Example 12, N-(3-(1-bromo-3H-pyrazolo[3,4-c]isoquinolin-7-yl)-2-chloro-4-fluorophenyl)propane-1-sulfonamide]
100		CCCS(=O)(=O)Nc1ccc(F)c(-c2cc3cnc4[nH]nc(C5CC5)c4c3cc2OC)c1F [Example 23, N-(3-(1-cyclopropyl-8-methoxy-3H-pyrazolo[3,4-c]isoquinolin-7-yl)-2,4-difluorophenyl)propane-1-sulfonamide]
284		CCCS(=O)(=O)Nc1ccc(F)c(-c2cc3cnc4[nH]nc(C5CC5)c4c3cc2OC)c1Cl [Example 24, N-(2-chloro-3-(1-cyclopropyl-8-methoxy-3H-pyrazolo[3,4-c]isoquinolin-7-yl)-4-fluorophenyl)propane-1-sulfonamide]
131	118	CCCS(=O)(=O)Nc1ccc(Cl)c(-c2ccc3c(cnc4[nH]ncc43)c2)c1F [Example 17, N-(4-chloro-2-fluoro-3-(3H-pyrazolo[3,4-c]isoquinolin-7-yl)phenyl)propane-1-sulfonamide]
103	8690	CCCS(=O)(=O)Nc1ccc(F)c(-c2ccc3cc(N)ncc3c2)c1F [Example 1, N-(3-(3-aminoisoquinolin-7-yl)-2,4-difluorophenyl)propane-1-sulfonamide]
309	389	CCCS(=O)(=O)Nc1ccc(F)c(-c2ccc3c(cnc4[nH]cnc43)c2)c1F [Example 28, N-(2,4-difluoro-3-(3H-imidazo[4,5-c]isoquinolin-7-yl)phenyl)propane-1-sulfonamide]
64	20	CCCS(=O)(=O)Nc1ccc(F)c(-c2ccc3c(cnc4[nH]nc(C5CC5)c43)c2)c1Cl [Example 13, N-(2-chloro-3-(1-cyclopropyl-3H-pyrazolo[3,4-c]isoquinolin-7-yl)-4-fluorophenyl)propane-1-sulfonamide]
66	50	O=S(=O)(CCCF)Nc1ccc(F)c(-c2ccc3c(cnc4[nH]ncc43)c2)c1F [Example 14, N-(2,4-difluoro-3-(3H-pyrazolo[3,4-c]isoquinolin-7-yl)phenyl)-3-fluoropropane-1-sulfonamide]
23	6.6	O=S(=O)(CCCF)Nc1ccc(F)c(-c2ccc3c(cnc4[nH]ncc43)c2)c1Cl [Example 15, N-(2-chloro-4-fluoro-3-(3H-pyrazolo[3,4-c]isoquinolin-7-yl)phenyl)-3-fluoropropane-1-sulfonamide]
